Measured values reported in patent publication US20230340012A1, “NATURAL AND SYNTHETIC COMPOUNDS FOR TREATING CANCER AND OTHER DISEASES” (PACIFIC ARROW LIMITED, priority 2009, published 2023).
“And” between values parts separate entries of the source, which are not always exact repeats. Equal values may be shown once.

What was measured:
Jurkat cells = assay: Agonist activity of anti-DR5 antibody with Tig-R in Jurkat cells, MTT; type: cell-based, human
Procedure: Experiment 44: Agonist activity of […] anti-DR5 antibody with Tig-R in Jurkat cells Jurkat cells (Human Acute T-cell leukemia) were cultured in RPMI1640 medium with 10% FBS, antibiotics (Pen Strep) and L-Glutamine in a 37C, 5% CO2 incubator. Cells in log-growth phase (about 0.5 million cells per ml) were treated with antibody (AB) or/and Tig-R. The antibody is Human TRAIL R2/TNFRSF 10B Antibody from R&D (MAB631-100). Treatment time is 2 days. Inhibition of cell growth after treatment was determined by MTT assay.
Conditions for combination studies: Tig-R (2.5 ug/ml) was added together with AB (2-8 ng/ml). Cells

[1] = system: DR5 (TNFRSF10B) in U2OS cells; assay: DR5 Western blot, U2OS cells; type: cell-based, human
[2] = system: DR5 (TNFRSF10B) in CAPAN cells; assay: DR5 Western blot, CAPAN cells; type: cell-based, human; conditions: Tig-R 10 ug/ml, 2 days
Procedure: (§1) A. Cells and drug-treatment: HepG2 cells (liver cancer cells), CAPAN cells, ES2 cells (Ovary cell) were cultured in DMEM medium with 10% FBS, antibiotics (Pen Strep) and L-Glutamine in a 37° C., 5% CO2 incubator. Cells in log-growth phase were treated with Tig-R (10 ug/ml), Tig-S (4 ug/ml) or DMSO (as control) for 2 days.
(§2) B. Total cell protein extraction: Drug-treated cells were collected, pelleted with centrifugation. The cell pellet was extracted with SDS-Sample buffer (containing PMSF and protease inhibitors cocktail). About 0.1 gram cell pellet was extracted in 1 ml of extraction buffer. The cell extract was then incubated in boiling water bath for 6 minutes with occasionally vortexing. The protein extract was immediately frozen in -80° C. before used.
(§3) C. SDS gel electrophoresis: 10-20 ug of protein sample was loaded into each lane of a 10% SDS gel. Electrophoresis was conducted with 100 volt constant for 2 hours.
(§4) D. Western Blot: Separated proteins from SDS gel were transferred to a nitrocellulose membrane, which was blocked with 5% non-fat dry milk. The membrane was then exposed to 1st antibody (anti-TNFRSF10B) over night, then washed. The membrane was then incubated in 2nd antibody (anti-mouse-AP conjugated) for an hour, then washed. The immuno-bands were developed with BCIP/NBT substrate.
(§5) E. Another SDS gel with same sample loading was stained with Coomassie Brilliant Blue (CBB) for protein staining.
(§6) F. Determination of Western blot band intensity: The band-images of Western blot were captured with a digital camera and the intensity of bands was determined using “Image J” software.

Swiss3T3 cells = assay: MTT cytotoxicity, Swiss3T3 mouse normal fibroblast; type: cell-based; conditions: preliminary results
Procedure: Swiss3T3 cells are mouse normal fibroblast which were used in this experiment to compare with ES2 (human ovarian cancer) in Tig-R cytotoxicity determination.
MTT Assay. The procedure for MTT assay followed the method described by Carmichael et al. (1987) with modifications. The cells were seeded into a 96-well plate at for 24 hours before drug-treatment. The cells were then exposed to the drugs for 48, 72, or 96 hours. After the drug-treatment, MTT (0.5 mg/mL) was added to cultures and incubated for an hour. The formazan (product of the reduction of tetrazolium by viable cells) formed and was dissolved with DMSO and the O.D. at 490 nm, and was measured by an ELISA reader. The MTT level of the cells before drug-treatment was also measured (T0). The % cell-growth (%G) is calculated as: %G = (TD-T0 / TC-T0) x 100(1), where TC or TD represents O.D. readings of control or drug-treated cells. When T0 > TD, then the cytotoxicity (LC) expressed as % of the control is calculated as: %LC = (TD-T0 / T0) × 100(2).

[3] = system: DR5 (TNFRSF10B) in HepG2 cells; assay: DR5 Western blot, HepG2 cells; type: cell-based, human; conditions: 2 days
Procedure: as §1, §2, §3, §4, §5, §6

[4] = system: Human leukemia cells K562; assay: Inhibition of human leukemia K562 cells, cell counting; type: cell-based
Procedure: Method: • 1. Cells: Human leukemia cells K562 in RPMI1640 medium. • 2. Drug: Tig-S (1000x stock solution in DMSO). • 3. Start cells concentration: […] (500000/ml). • 4. Cells were cultured with or without drug for total of four days. • 5. Cell number is doubled after 2 days of incubation. Fresh medium (equal volume, with or without drug) was then added to culture. • 6. Cells were counted every day.

[5] = system: Human leukemia cells K562; assay: Apoptosis in K562 cells, Annexin V / propidium iodide flow cytometry; type: cell-based; conditions: for apoptotic cells population: two days, background 10-15%
Procedure: • 1. Cells: Human leukemia cells K562 cultured in RPMI1640 medium. • 2. Drug: Tig-S (1000x stock solution in DMSO). • 3. Start cells concentration: 500000/ml. • 4. Cells were cultured with drug (0 - 20 ug/ml) for Two days. • 5. Collect cells from culture (1 - 4 million) by centrifugation (136xg for 5 min. remove supernatant). • 6. Wash cells with 1 ml of cold PBS, collect cells by centrifugation (136xg, 5 min, remove supernatant). • 7. Re-suspend cells in 200 ul Binding buffer (10 mM HEPES, 140 mM NaCl, 2.5 mM CaCl2, pH 7.4). • 8. Stained cells by adding 10 ul Annexin V (Alexa Fluor 488, Invitrogen cat# A13201), and 2 ul Propidium iodide (1 mg/ml in water) to cell suspension. Mix. • 9. Sit at Room temperature for 15 min. • 10. Wash cells with 1 ml binding buffer. Collect cells by centrifugation. • 11. Re-suspend cells with in 1 ml of binding buffer for analysis by flow cytometry. • 12. Flow Cytometry analysis was performed in Baylor Core Facility with a LSRII instrument. • 13. Analysis: Control cells stained with PI or Annexin V-488 (Annexin V-FITC) alone were served as references. About 50000 cells were analyzed for each sample. • 14.Cell distribution in following groups: live, early apoptosis, late-apoptosis, total apoptosis and dead cells were determined. • 15.

[6] = U2OS cells, Tig-R, single experiments 1-2
[7] = HepG2 cells, Tig-R 10 ug/ml, single experiments 1-4

Row | Compound | combined effect with anti-DR5 antibody (Jurkat cells; Jurkat, Tig-R 2.5 ug/ml) | increase of inhibition with Tig-R (Jurkat cells; Tig-R 2.5 ug/ml added to antibody) | inhibition of cell growth (Jurkat cells; Tig-R 2.5 ug/ml alone, 2 days) [%] | DR5 band intensity, % of DMSO, Average (%) ([1]; U2OS cells, Tig-R, average of 2 experiments) | DR5 Western blot band intensity (Image J) [1, 6] | DR5 band intensity, % of DMSO [1, 6] | increase of DR5 over DMSO control cells ([1]; U2OS, Tig-R treatment) [%] | DR5 Western blot band intensity (Image J) ([2]; CAPAN cells) | DR5 band intensity, % of DMSO ([2]; CAPAN cells) [%] | increase of DR5 over DMSO control cells ([2]; CAPAN) [%] | IC50 in SW3T3 cells (Swiss3T3 cells) | increase of DR5 over DMSO control cells ([3]; HepG2, Tig-R 10 ug/ml) [%] | DR5 band intensity, % of DMSO, Average (%) ([3]; HepG2 cells, Tig-R 10 ug/ml, average of 4 experiments, SD 37) | DR5 Western blot band intensity (Image J) [3, 7] | DR5 band intensity, % of DMSO [3, 7] | No growth (IC100), K562 ([4]; beginning on day 2) [µg/mL] | IC50, Leukemia K562 cells growth ([4]; cell counting, up to four days) | apoptotic cells population ([5]; 2.5 ug/ml) [%] | apoptotic cells population ([5]; 20 ug/ml) [%] | mechanism of cell death ([5]; K562)
1 | 24,28-O-Tigloyl-3β,16α, 21β, 22a, 24β, 28-hexahydroxyolean-12-ene [Tig-R] | synergistic | about 20% | 8 | 206 | 18269 and 16969 | 209% and 203% | 106 | 29128 | 151 | 51 | above 20 ug/ml | 69 | 169 | 31752 and 19291 and 22435 and 33645 | 194% and 122% and 202% and 156% |  |  |  |  | 
2 | CC=C(C)C(=O)OCC1(C)C(O)CCC2(C)C1CCC1(C)C2CC=C2C3CC(C)(C)C(OC(=O)C(C)=CC)C(O)C3(CO)C(O)CC21C (centres unmarked) [Tig-S] |  |  |  |  |  |  |  |  |  |  |  |  |  |  |  | ≥ 2.5 | about 0.6 ug/ml | 15 | 27 | induces cell-death by the apoptosis mechanism
